According to patent US12643887B2, “Heterocyclic derivatives with cardiomyocyte proliferation activity for treatment of heart diseases” (Tongji University, priority 2019, dated 2026):

How the values were obtained:
human HIPK1 = target: T1, human HIPK1 (Homo sapiens, UniProt Q86Z02); assay: HIPK1 enzyme assay (ADP-Glo); type: biochemical; settings: ADP-Glo, ATP 5 μM; read-out: HIPK1 IC50
T1 construct: Recombinant human HIPK1 (156-555); GST (N); purchased SignalChem H03-11G; host or cells: Sf9 insect cells
Experimental: The ability of compounds to inhibit human HIPK1 kinase activities was determined using a commercially available ADP-Glo™ Kinase Assay kit (Promega, Cat #V9102) according to the manufacturer's protocol.
Recombinant human HIPK1 (156-555) (expressed in Sf9 insect cells with an N-terminal GST tag) was purchased from SignalChem (Cat #H03-11G). Recombinant full length human MBP (expressed in E. Coli cells with an N-terminal GST tag) was purchased from SignalChem (Cat #M42-54G). This assay, run in a 384-well plate format, is a generic method for measuring kinase activities using an ADP-Glo Kinase Assay Kit. The basic assay procedure involves two steps: (1) Enzymatic step: inhibitors are incubated with the kinase and then ATP (included in the ADP-Glo Kinase Assay Kit) and the MBP protein are added to start the enzymatic reaction; (2) Detection step: after the kinase reaction, first ADP-Glo™ Reagent is added to terminate the kinase reaction and deplete the remaining ATP. Second, the Kinase Detection Reagent is added to simultaneously convert ADP to ATP and allow the newly synthesized ATP to be measured using a luciferase/luciferin reaction. The light generated is measured using a luminometer.
Briefly, HIPK1 (4 nM) in the enzymatic buffer solutions (40 mM Tris, pH 7.5, 20 mM MgCl2, 0.1 mg/ml BSA, 50 μM DTT) were mixed with various concentrations of inhibitors (dissolved in 100% DMSO). These solutions were incubated for 30 minutes at 25° C., and subsequently a mixture of substrate peptide and ATP was added with the final peptide and ATP concentrations at 0.05 mg/ml and 5 μM, respectively. The final reaction mixture of enzyme-substrate-ATP-compound was incubated for 90 minutes at 25° C.
Afterwards ADP-Glo™ Reagent was added and the mixture was incubated at 25° C. for 60 minutes. Then Kinase Detection Reagent was added, and the final mixture was incubated at 25° C. for 60 minutes. The luminescence signal of the final solution was measured on an Envision instrument (PerkinElmer). The percent (%) inhibition at each concentration of a compound is calculated relative to the luminescence signal in the Max and Min control wells contained within each assay plate. […] The concentrations and percent inhibition values for a test compound are plotted and the concentration of the compound required to achieve 50% inhibition (IC50) is determined with a four-parameter logistic dose response equation.

[1] = system: Neonatal Rat Ventricular Myocytes (NRVMs); assay: Myocyte proliferation assay (EdU assay) in neonatal rat ventricular myocytes; type: cell-based; settings: growth relative to blank myocyte growth without compound added; for Avg 1 uM (average myocyte proliferation): compound 1 uM; for Avg 3 uM (average myocyte proliferation): compound 3 uM; for Avg 10 uM (average myocyte proliferation): compound 10 uM
Experimental: 1. Isolation of and Culture Neonatal Rat Ventricular Myocytes (NRVMs)
Ventricles from neonatal rats were separated from the atria, cut into small pieces (about 2×2 mm^2) and then dissociated in Ca2+-free HBSS containing 0.125 mg ml-1 trypsin (Gibco), 10 μg ml-1 DNase II (Sigma) and 0.1 mg ml-1 collagenase type IV (Sigma). The digestion was carried out under constant stirring at 37° C. for 5 min. The supernatant was collected with FBS (Gibco) after each digestion period. After digestion, the collected supernatant was centrifuged at 1000 g for 10 min at room temperature, and then cell pellets were resuspended in DMEM (Gibco) supplemented with 10% FBS and with 100 uM 5-bromo-2′-deoxyuridine (Sigma). The resuspended cells were passed through a cell strainer ([…], BD Falcon) and seeded onto 100-mm plastic dishes for 2 h at 37° C. in a 5% CO2 to remove fibroblasts, the supernatant was then collected and plated onto 1% gelatin (Sigma)-coated dishes. 24 h after the seeding, the medium was changed to DMEM (Gibco) containing 2% FBS (Gibco), 1% insulin-transferrin-selenium (ITS; Gibco), 1% Penicillin-Streptomycin (Gibco). After 24 hours of low serum culture, remove the medium with DMEM (Gibco) containing 6% FBS (Gibco), 1% insulin-transferrin-selenium (ITS; Gibco), 1% Penicillin-Streptomycin (Gibco), different concentrations of compounds (the compounds were pre-diluted in the medium and the drug concentration was 10 uM, 3 uM, 1 uM, fully mixed). After 36 h add Edu substrate (Invitrogen) according to the manufacturer's guidelines, and then after 12 h cell can be used.
• 2.1. Immobilization: Remove the medium and fix the cells with […] in 200 ul (whichever is covered) for 15 min and wash the cells twice with 500 ul of PBS for 5 min each time. • 2.2. Broken membrane: Add 200 ul of 0.3% Triton-X 100 (diluted in PBS) to each well, incubate for 10-15 min at room temperature (the time should not be too long), and wash the cells twice with 500 ul of PBS for 5 min each time. • 2.3. Blocking: Add 200 ul of 10% normal goat serum (diluted with 0.1% PBST) to each well, incubate for 1 h at room temperature, and wash twice with 500 ul of 0.1% PBST for 5 min each time. • 2.4. Primary antibody: dilute the primary antibody (abcam, ab8295) to blocking solution at a ratio of 1:200, add 100 ul per well, incubate for 1 h at room temperature (may be slightly longer than 2-3 h), wash the cells twice with 500 ul 0.1% PBST for 5 min each time. • 2.5. Secondary antibody: Dilute the fluorescently labeled secondary antibody (abcam, ab150117) into blocking solution at a ratio of 1:200, add 100 ul per well, incubate for 1 h at room temperature (the time should not be too long), wash the cells twice with 0.1% PBST for 5 min each time, pay attention to the whole process. Protected from light. • 2.6. Edu staining (Invitrogen C10338) • 2.6.1 Prepare Click-iT® reaction cocktail according to Table 3. It was important to add the ingredients in the order listed in the table; otherwise, the reaction would not proceed optimally. Use the Click-iT® reaction cocktail within 15 minutes of preparation.
• 2.6.2 Add 0.1 mL of Click-iT® reaction cocktail to each well containing a coverslip. Rock the plate briefly to ensure that the reaction cocktail is distributed evenly over the coverslip. • 2.6.3 Incubate the plate for 30 minutes at room temperature, protected from light. • 2.6.4 Remove the reaction cocktail, then wash the cells twice with 0.1% PBST for 5 min each time. • 2.7. DAPI staining: DAPI stain was diluted to PBS at a ratio of 1:1000, 100 ul per well, incubated for 30 min at room temperature, and the cells were washed twice with PBS for 5 min each. 3. Data Analysis
We used Molecular Devices' Image Xpress Micro Confocal for high-throughput photo and data analysis.

T1 sequence (Q86Z02 156-555): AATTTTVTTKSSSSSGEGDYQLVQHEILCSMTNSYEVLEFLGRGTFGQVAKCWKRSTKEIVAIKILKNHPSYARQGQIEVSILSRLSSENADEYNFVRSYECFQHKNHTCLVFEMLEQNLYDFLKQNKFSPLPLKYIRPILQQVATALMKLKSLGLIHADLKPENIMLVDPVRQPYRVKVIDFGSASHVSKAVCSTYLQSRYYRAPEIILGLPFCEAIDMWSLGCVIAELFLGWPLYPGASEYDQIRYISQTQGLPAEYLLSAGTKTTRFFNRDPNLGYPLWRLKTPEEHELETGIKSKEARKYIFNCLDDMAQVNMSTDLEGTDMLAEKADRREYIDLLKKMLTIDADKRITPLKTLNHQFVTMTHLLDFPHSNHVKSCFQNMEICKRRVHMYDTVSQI

Compound | IC50 (human HIPK1) [nM] | Avg 1 uM (average myocyte proliferation) [1] | Avg 3 uM (average myocyte proliferation) [1] | Avg 10 uM (average myocyte proliferation) [1]
CN(Cc1ccccc1)C1=N/C(=C\c2ccc3c(c2)OCO3)C(=O)N1 [Example 23, (Z)-5-(benzo[d][1,3]dioxol-5-ylmethylene)-2-(benzyl(methyl)amino)-3,5-dihydro-4H-imidazol-4-one] | > 10000 | ** (10%-50%) | ** (10%-50%) | ** (10%-50%)
CN(C1=N/C(=C\c2ccc3ncsc3c2)C(=O)N1)c1ccc(Cl)cc1 [Example 24, (Z)-5-(benzo[d]thiazol-6-ylmethylene)-2-((4-chlorophenyl)(methyl)amino)-3,5-dihydro-4H-imidazol-4-one] | > 10000 | * (<10% growth relative to blank myocyte growth without compound added.) | * (<10% growth relative to blank myocyte growth without compound added.) | * (<10% growth relative to blank myocyte growth without compound added.)
COc1ccc(NC2=N/C(=C\c3ccc4ncsc4c3)C(=O)N2)cc1 [Example 25, (Z)-5-(benzo[d]thiazol-6-ylmethylene)-2-((4-methoxyphenyl)amino)-3,5-dihydro-4H-imidazol-4-one] | 100 to 1000 | ** (10%-50%) | * (<10% growth relative to blank myocyte growth without compound added.) | * (<10% growth relative to blank myocyte growth without compound added.)
O=C1NC(Nc2ccccc2)=N/C1=C\c1ccc2[nH]cnc2c1 [Example 26, (Z)-5-((1H-benzo[d]imidazol-5-yl)methylene)-2-(phenylamino)-3,5-dihydro-4H-imidazol-4-one] | 100 to 1000 | * (<10% growth relative to blank myocyte growth without compound added.) | * (<10% growth relative to blank myocyte growth without compound added.) | * (<10% growth relative to blank myocyte growth without compound added.)
O=C(O)CCN(C1=N/C(=C\c2ccc3c(c2)OCO3)C(=O)N1)c1ccccc1 [Example 27, (Z)-3-((4-(benzo[d][1,3]dioxol-5-ylmethylene)-5-oxo-4,5-dihydro-1H-imidazol-2-yl)(phenyl)amino)propanoic acid] | 1000 to 10000 | * (<10% growth relative to blank myocyte growth without compound added.) | * (<10% growth relative to blank myocyte growth without compound added.) | ** (10%-50%)
CN(Cc1ccccc1)C1=N/C(=C\c2ccc3ncsc3c2)C(=O)N1 [Example 28, (Z)-5-(benzo[d]thiazol-6-ylmethylene)-2-(benzyl(methyl)amino)-3,5-dihydro-4H-imidazol-4-one] | 1000 to 10000 | * (<10% growth relative to blank myocyte growth without compound added.) | * (<10% growth relative to blank myocyte growth without compound added.) | * (<10% growth relative to blank myocyte growth without compound added.)
O=C1NC(NCCN2CCOCC2)=N/C1=C\c1ccc2ncsc2c1 [Example 29, (Z)-5-(benzo[d]thiazol-6-ylmethylene)-2-((2-morpholinoethyl)amino)-3,5-dihydro-4H-imidazol-4-one] | 1000 to 10000 | ** (10%-50%) | * (<10% growth relative to blank myocyte growth without compound added.) | *** (>50%)
CN(C1=N/C(=C\c2ccc3[nH]cnc3c2)C(=O)N1)c1ccccc1 [Example 30, (Z)-5-((1H-benzo[d]imidazol-5-yl)methylene)-2-(methyl(phenyl)amino)-3,5-dihydro-4H-imidazol-4-one] | > 10000 | * (<10% growth relative to blank myocyte growth without compound added.) | * (<10% growth relative to blank myocyte growth without compound added.) | 

Continued, in another order:

IC50 (human HIPK1) [nM] | Compound | Avg 1 uM (average myocyte proliferation) [1] | Avg 3 uM (average myocyte proliferation) [1] | Avg 10 uM (average myocyte proliferation) [1]
100 to 1000 | O=C1NC(NCc2ccccc2)=N/C1=C\c1ccc2ncsc2c1 [Example 31, (Z)-5-(benzo[d]thiazol-6-ylmethylene)-2-(benzylamino)-3,5-dihydro-4H-imidazol-4-one] | ** (10%-50%) | ** (10%-50%) | 
> 10000 | CN(CCN1CCOCC1)C1=N/C(=C\c2ccc3ncsc3c2)C(=O)N1 [Example 32, (Z)-5-(benzo[d]thiazol-6-ylmethylene)-2-(methyl(2-morpholinoethyl)amino)-3,5-dihydro-4H-imidazol-4-one] | * (<10% growth relative to blank myocyte growth without compound added.) | * (<10% growth relative to blank myocyte growth without compound added.) | 
> 10000 | CN(CC1CC1)C1=N/C(=C\c2ccc3ncsc3c2)C(=O)N1 [Example 33, (Z)-5-(benzo[d]thiazol-6-ylmethylene)-2-((cyclopropylmethyl)(methyl)amino)-3,5-dihydro-4H-imidazol-4-one] | * (<10% growth relative to blank myocyte growth without compound added.) | * (<10% growth relative to blank myocyte growth without compound added.) | 
1000 to 10000 | O=C1NC(NCC2CC2)=N/C1=C\c1ccc2ncsc2c1 [Example 34, (Z)-5-(benzo[d]thiazol-6-ylmethylene)-2-((cyclopropylmethyl)amino)-3,5-dihydro-4H-imidazol-4-one] | ** (10%-50%) | *** (>50%) | 
